From US10208019B2, “GLP-1 receptor agonists and uses thereof” (Pfizer Inc., priority 2016, dated 2019)
Where a name gives a salt, the structure may show the parent alone. Read-outs that look alike come from different tables or passages of the source.

Tests used:
[1] = molecular target: human GLP-1R (Homo sapiens, UniProt P43220, G168S); experiment: CHO GLP-1R Clone H6—Assay 1: HTRF cAMP cell-based functional agonist assay (high GLP-1R density); settings: for EC50: CHO GLP-1R Clone H6, cAMP HTRF, geometric mean; for Emax: read-out: Assay 1 Emax (%), CHO GLP-1R Clone H6, relative to saturating concentration of full agonist GLP-1 (1 μM), arithmetic mean
[2] = molecular target: human GLP-1R (Homo sapiens (Human), UniProt P43220, L260F); experiment: CHO GLP-1R Clone C6—Assay 2: HTRF cAMP cell-based functional agonist assay (low GLP-1R density); settings: for EC50: CHO GLP-1R Clone C6, cAMP HTRF, geometric mean; for Assay 2 Emax (%) / Emax: CHO GLP-1R Clone C6, relative to saturating concentration of full agonist GLP-1 (1 μM), arithmetic mean; for Emax: read-out: Assay 2 Emax (%)
Sequence of human GLP-1R (Homo sapiens (Human), UniProt P43220, L260F) (P43220 24-463 L260F): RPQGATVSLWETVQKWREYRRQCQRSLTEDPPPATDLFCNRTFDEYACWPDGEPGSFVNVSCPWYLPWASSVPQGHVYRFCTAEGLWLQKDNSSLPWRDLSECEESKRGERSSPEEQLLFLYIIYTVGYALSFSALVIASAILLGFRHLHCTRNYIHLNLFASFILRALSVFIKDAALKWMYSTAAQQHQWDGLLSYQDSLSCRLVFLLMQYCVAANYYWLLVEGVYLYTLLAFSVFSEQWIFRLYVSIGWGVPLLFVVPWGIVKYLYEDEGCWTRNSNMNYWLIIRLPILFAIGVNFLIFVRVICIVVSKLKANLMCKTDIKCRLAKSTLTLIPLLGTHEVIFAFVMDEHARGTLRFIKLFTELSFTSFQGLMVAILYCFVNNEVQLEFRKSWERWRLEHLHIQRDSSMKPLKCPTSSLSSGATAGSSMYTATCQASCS

Sequence of human GLP-1R (Homo sapiens, UniProt P43220, G168S) (P43220 24-463 G168S limits assumed): as the sequence (P43220 24-463 L260F) above, with G145S, F237L counted along it

SMILES | EC50 ([1]; read-out: Assay 1 EC50) | EC50 [2] | EC50 ([1]; Assay 1 EC50 (nM)) | Emax [1] | Emax [2] | Assay 2 Emax (%) [2]
C[C@H]1CN(c2cccc(OCc3ccc(C#N)cc3F)n2)CCN1Cc1nc2ccc(C(=O)O)cc2n1CC1CCCO1 (single isomer, unassigned; diastereomer 2) [Example 14A-12] | 1.4 nM | 20 nM |  |  |  | 
N#Cc1ccc(COc2cccc(C3CCN(Cc4nc5ccc(C(=O)O)cc5n4CC4CCCO4)CC3)n2)cc1 (single isomer, unassigned; enantiomer 1) [Example 14A-01, 2-[(4-{6-[(4-cyanobenzyl)oxy]pyridin-2-yl}piperidin-1-yl)methyl]-1-(tetrahydrofuran-2-ylmethyl)-1H-benzimidazole-6-carboxylic acid,enantiomer 1] | 5.6 nM | 200 nM |  |  |  | 89%
COCCn1c(CN2CCN(c3cccc(OCc4ccc(Cl)cc4F)n3)CC2C(F)(F)F)nc2ccc(C(=O)O)cc21 (single isomer, unassigned; enantiomer 2) [Example 12A-02, 2-((4-(6-((4-Chloro-2-fluorobenzyl)oxy)pyridin-2-yl)-2-(trifluoromethyl)piperazin-1-yl)methyl)-1-(2-methoxyethyl)-1H-benzo[d]imidazole-6-carboxylic acid, enantiomer 2] |  | 1600 nM | 36 nM | 71% | 82% | 
N#Cc1ccc(COc2cccc(C3CCN(Cc4nc5ccc(C(=O)O)cc5n4CC4CCCO4)CC3)n2)cc1 (single isomer, unassigned; enantiomer 2) [Example 14A-02, 2-[(4-{6-[(4-cyanobenzyl)oxyhoyridin-2-yl}piperidin-1-yl)methyl]-1-(tetrahydrofuran-2-ylmethyl)-1H-benzimidazole-6-carboxylic acid,enantiomer 2] | 94 nM | 1500 nM |  |  |  | 69%
Cn1c(CN2CCC(c3cccc(OCc4ccc(Cl)cc4F)n3)CC2)nc2ccc(C(=O)O)cc21 [Example 1A-01, 2-((4-(6-((4-Chloro-2-fluorobenzyl)oxy)pyridin-2-yl)piperidin-1-yl)methyl)-1-methyl-1H-benzo[d]imidazole-6-carboxylic acid hydrochloride] | 81 nM | 910 nM |  | 77% | 94% | 
COCCn1c(CN2CCN(c3nc(OCc4ccc(Cl)cc4F)ccc3F)CC2)nc2ccc(C(=O)O)cc21 [Example 1A-05, 2-[(4-{6-[(4-chloro-2-fluorobenzyl)oxy]-3-fluoropyridin-2-yl}piperazin-1-yl)methyl]-1-(2-methoxyethyl)-1H-benzimidazole-6-carboxylic acid] |  |  |  | 75% | 67% | 
[2H]C([2H])(Oc1cccc(C2CCN(Cc3nc4ccc(C(=O)O)cc4n3C[C@@H]3CCO3)CC2)n1)c1ccc(C#N)cc1F [Example 1A-09, 2-{[4-(6-{[(4-cyano-2-fluorophenyl)(methyl-d2)]oxy}pyridin-2-yl)piperidin-1-yl]methyl}-1-[(2S)-oxetan-2-ylmethyl]-1H-benzimidazole-6-carboxylic acid] |  |  |  | 92% | 120% | 
COCCn1c(CN2CCC(c3cccc(OCc4ccccc4)n3)CC2)nc2ccc(C(=O)O)cc21 [Example 1A-10, 2-({4-[6-(benzyloxy)pyridin-2-yl]piperidin-1-yl}methyl)-1-(2-methoxyethyl)-1H-benzimidazole-6-carboxylic acid] | 930 nM | 9000 nM |  | 86% | 100% | 
COCCn1c(CN2CCN(c3cccc(OCc4ccc(C#N)cc4)n3)CC2)nc2ccc(C(=O)O)cc21 [Example 1A-11, 2-[(4-{6-[(4-cyanobenzyl)oxy]pyridin-2-yl}piperazin-1-yl)methyl]-1-(2-methoxyethyl)-1H-benzimidazole-6-carboxylic acid] | 19 nM | 530 nM |  | 76% | 97% | 
COCCn1c(CN2CCN(c3cccc(OCc4ccc(Cl)cc4F)n3)[C@H](C)C2)nc2ccc(C(=O)O)cc21 [Example 1A-14, 2-{[(3R)-4-{6-[(4-chloro-2-fluorobenzyl)oxy]pyridin-2-yl}-3-methylpiperazin-1-yl]methyl}-1-(2-methoxyethyl)-1H-benzimidazole-6-carboxylic acid] | 47 nM | 1600 nM |  | 71% | 81% | 
Cn1cnnc1Cn1c(CN2CCC(c3cccc(OCc4ccc(C#N)cc4F)n3)CC2)nc2ccc(C(=O)O)cc21 [Example 1A-20, 2-[(4-{6-[(4-cyano-2-fluorobenzyl)oxy]pyridin-2-yl}piperidin-1-yl)methyl]-1-[(4-methyl-4H-1,2,4-triazol-3-yl)methyl]-1H-benzimidazole-6-carboxylic acid] | 44 nM | 880 nM |  | 81% | 90% | 
CO[C@@H]1CCC[C@H]1n1c(CN2CCC(c3cccc(OCc4ccc(Cl)cc4F)n3)CC2)nc2ccc(C(=O)O)cc21 [Example 1A-27, 2-[(4-{6-[(4-chloro-2-fluorobenzyl)oxy]pyridin-2-yl}piperidin-1-yl)methyl]-1-[(1R,2R)-2-methoxycyclopentyl]-1H-benzimidazole-6-carboxylic acid] | 190 nM | 1400 nM |  | 91% | 47% | 
CO[C@H]1C[C@@H](Cn2c(CN3CCC(c4cccc(OCc5ccc(Cl)cc5F)n4)CC3)nc3ccc(C(=O)O)cc32)C1 [Example 1A-28, 2-[(4-{6-[(4-chloro-2-fluorobenzyl)oxy]pyridin-2-yl}piperidin-1-yl)methyl]-1-[(cis-3-methoxycyclobutyl)methyl]-1H-benzimidazole-6-carboxylic acid] |  | 7700 nM | 300 nM | 92% | 100% | 

More lines, main results first:

EC50 ([1]; read-out: Assay 1 EC50) | EC50 [2] | EC50 ([1]; Assay 1 EC50 (nM)) | Emax [1] | Emax [2] | SMILES | Assay 2 Emax (%) [2]
21 nM | 350 nM |  | 79% | 82% | COCCn1c(CN2CCC(c3ccc(F)c(OCc4ccc(Cl)cc4F)n3)CC2)nc2ccc(C(=O)O)cc21 [Example 1A-04, 2-[(4-{6-[(4-chloro-2-fluorobenzyl)oxy]-5-fluoropyridin-2-yl}piperidin-1-yl)methyl]-1-(2-methoxyethyl)-1H-benzimidazole-6-carboxylic acid] | 
29 nM | 350 nM |  | 84% | 70% | COCCn1c(CN2CCN(c3nc(OCc4ccc(Cl)cc4F)ccc3F)C[C@@H]2C)nc2ccc(C(=O)O)cc21 [Example 1A-06, 2-{[(2S)-4-{6-[(4-chloro-2-fluorobenzyl)oxy]-3-fluoropyridin-2-yl}-2-methylpiperazin-1-yl]methyl}-1-(2-methoxyethyl)-1H-benzimidazole-6-carboxylic acid] | 
3.9 nM | 45 nM |  | 82% | 82% | COCCn1c(CN2CCN(c3ccc(F)c(OCc4ccc(Cl)cc4F)n3)C[C@@H]2C)nc2ccc(C(=O)O)cc21 [Example 1A-07, 2-{[(2S)-4-{6-[(4-chloro-2-fluorobenzyl)oxy]-5-fluoropyridin-2-yl}-2-methylpiperazin-1-yl]methyl}-1-(2-methoxyethyl)-1H-benzimidazole-6-carboxylic acid] | 
7.1 nM | 120 nM |  | 81% | 85% | COCCn1c(CN2CCN(c3ccc(F)c(OCc4ccc(C#N)cc4)n3)C[C@@H]2C)nc2ccc(C(=O)O)cc21 [Example 1A-08, 2-{[(2S)-4-{6-[(4-cyanobenzyl)oxy]-5-fluoropyridin-2-yl}-2-methylpiperazin-1-yl]methyl}-1-(2-methoxyethyl)-1H-benzimidazole-6-carboxylic acid] | 
1.5 nM | 14 nM |  | 86% | 82% | Cn1cncc1Cn1c(CN2CCC(c3cccc(OCc4ccc(C#N)cc4F)n3)CC2)nc2ccc(C(=O)O)cc21 [Example 1A-16, 2-[(4-{6-[(4-cyano-2-fluorobenzyl)oxy]pyridin-2-yl}piperidin-1-yl)methyl]-1-[(1-methyl-1H-imidazol-5-yl)methyl]-1H-benzimidazole-6-carboxylic acid] | 
2.4 nM | 45 nM |  | 87% | 95% | Cn1cncc1Cn1c(CN2CCC(c3cccc(OCc4ccc(F)cc4F)n3)CC2)nc2ccc(C(=O)O)cc21 [Example 1A-17, 2-[(4-{6-[(2,4-difluorobenzyl)oxy]pyridin-2-yl}piperidin-1-yl)methyl]-1-[(1-methyl-1H-imidazol-5-yl)methyl]-1H-benzimidazole-6-carboxylic acid] | 
6.4 nM | 110 nM |  | 90% | 94% | CCCn1cnnc1Cn1c(CN2CCC(c3cccc(OCc4ccc(Cl)cc4F)n3)CC2)nc2ccc(C(=O)O)cc21 [Example 1A-18, 2-[(4-{6-[(4-chloro-2-fluorobenzyl)oxy]pyridin-2-yl}piperidin-1-yl)methyl]-1-[(4-propyl-4H-1,2,4-triazol-3-yl)methyl]-1H-benzimidazole-6-carboxylic acid] | 
0.28 nM | 3.2 nM |  | 84% | 84% | C[C@H]1CN(c2cccc(OCc3ccc(Cl)cc3F)n2)CCN1Cc1nc2ccc(C(=O)O)cc2n1C[C@@H]1CCO1 [Example 1A-19, 2-{[(2S)-4-{6-[(4-chloro-2-fluorobenzyl)oxy]pyridin-2-yl}-2-methylpiperazin-1-yl]methyl}-1-[(2S)-oxetan-2-ylmethyl]-1H-benzimidazole-6-carboxylic acid] | 
4.9 nM | 75 nM |  | 77% | 83% | N#Cc1ccc(COc2cccc(C3CCN(Cc4nc5ccc(C(=O)O)cc5n4C[C@@H]4CCCO4)CC3)n2)c(F)c1 [Example 1A-21, 2-[(4-{6-[(4-cyano-2-fluorobenzyl)oxy]pyridin-2-yl}piperidin-1-yl)methyl]-1-[(2S)-tetrahydrofuran-2-ylmethyl]-1H-benzimidazole-6-carboxylic acid] | 
